Series [1] deals with T1, hTLR2/6 (Homo sapiens, UniProt O60603+Q9Y2C9).
T1 construct: host or cells: HEK-293 (293/hTLR2/6, clone hTLR 2/6-luc)
In kind it is cell-based. The method, then: (§1) Cells: Human embryonic kidney cells 293 (HEK) were stably transfected with plasmids allowing for the constitutive expression of one or two Toll like Receptors of human origin (hTLR). The resulting cell lines 293/hTLR2-CD14, 293/hTLR3, 293/hTLR4-MD2-CD14, 293/hTLR5, 293/hTLR2/6, 293/hTLR7, 293/hTLR8 and 293/hTLR9 were purchased from InvivoGen (San Diego, Calif., USA). All cell lines were cultivated in the presence of Blasticidin S (10 μg/ml, InvivoGen) in Dulbecco's […] Eagle's medium (DMEM) supplemented with 10% fetal calf serum, 40 μg/ml Gentamycin, 2 mM Glutamine, 1 mM sodium pyruvate (Sigma) and 1× Non Essential Amino acids (NEAA, Gibco). In the case of 293/hTLR2-CD14 and 293/hTLR4-MD2-CD14 Hygromycin B was added to a concentration of 100 μg/ml. All eight cell lines were stably transfected with the NF-kB-inducible reporter plasmid pNiFty (InvivoGen). pNiFty encodes the firefly luciferase gene under control of an engineered ELAM1 promoter which combines five NF-kB sites and the proximal ELAM promoter. Stable transfectants were selected in the presence of 100 μg/ml Zeocin (InvivoGen). The emerging clones “hTLRx-luc” were characterized with respect to EC50 and fold-induction to the respective control TLR ligands. Clones with lowest EC50 and high fold inductions and good/acceptable growth behaviour were chosen.
(§2) In vitro TLR tests—method: Cells diluted in DMEM supplemented with 2% fetal calf serum, 40 μg/ml Gentamycin, 2 mM Glutamine, 1 mM sodium pyruvate (Sigma) and 1×MEM non essential amino acids (NEAA, Gibco) were seeded in 96 well plates. The next day. NA fraction (stock: 1 mg/ml) either alone or in combination with Lipofectin® (as described in Example 1) was added at a concentration of 16 μg/ml and 3-fold serial dilutions thereof. As positive controls, the cell lines were stimulated with a defined amount of their respective reference ligands. The day after stimulation (18-20 hours) later, cells were lysed in 100 μl buffer containing 125 mM Tris pH 7.8, 10 mM EDTA, 5 mM DTT and 5% Triton X-100. Firefly luciferase activity in 10 μl lysate was quantified by integrate measurement of flash luminescence over 1 sec (LB96 P Microlumat, Berthold) after addition of 50 μl luciferase revelation buffer (1× luciferase revelation buffer: 20 mM Tris pH 7.8, 1.07 mM MgCl2, 2.7 mM MgSO4, 0.1 mM EDTA, 33.3 mM DTT, 470 μM luciferine 530 μM ATP and 270 μM CoEnzyme A). The resulting relative light units (RLU) were expressed as percentage of induction compared to the control ligand and analyzed with the Graph Pad Prism 4 software using an equation for sigmoid dose response (determination of EC50).

Series [2] concerns the target T2, hTLR2 (Homo sapiens, UniProt O60603).
T2 construct: host or cells: HEK-293 (293/hTLR2-CD14, clone hTLR 2-luc)
Format: cell-based. The method, then: as §1, §2

In series [3] the target is T3, hTLR3 (Homo sapiens, UniProt O15455).
T3 construct: host or cells: HEK-293 (293/hTLR3, clone hTLR 3-luc)
T3 sequence (O15455 24-904): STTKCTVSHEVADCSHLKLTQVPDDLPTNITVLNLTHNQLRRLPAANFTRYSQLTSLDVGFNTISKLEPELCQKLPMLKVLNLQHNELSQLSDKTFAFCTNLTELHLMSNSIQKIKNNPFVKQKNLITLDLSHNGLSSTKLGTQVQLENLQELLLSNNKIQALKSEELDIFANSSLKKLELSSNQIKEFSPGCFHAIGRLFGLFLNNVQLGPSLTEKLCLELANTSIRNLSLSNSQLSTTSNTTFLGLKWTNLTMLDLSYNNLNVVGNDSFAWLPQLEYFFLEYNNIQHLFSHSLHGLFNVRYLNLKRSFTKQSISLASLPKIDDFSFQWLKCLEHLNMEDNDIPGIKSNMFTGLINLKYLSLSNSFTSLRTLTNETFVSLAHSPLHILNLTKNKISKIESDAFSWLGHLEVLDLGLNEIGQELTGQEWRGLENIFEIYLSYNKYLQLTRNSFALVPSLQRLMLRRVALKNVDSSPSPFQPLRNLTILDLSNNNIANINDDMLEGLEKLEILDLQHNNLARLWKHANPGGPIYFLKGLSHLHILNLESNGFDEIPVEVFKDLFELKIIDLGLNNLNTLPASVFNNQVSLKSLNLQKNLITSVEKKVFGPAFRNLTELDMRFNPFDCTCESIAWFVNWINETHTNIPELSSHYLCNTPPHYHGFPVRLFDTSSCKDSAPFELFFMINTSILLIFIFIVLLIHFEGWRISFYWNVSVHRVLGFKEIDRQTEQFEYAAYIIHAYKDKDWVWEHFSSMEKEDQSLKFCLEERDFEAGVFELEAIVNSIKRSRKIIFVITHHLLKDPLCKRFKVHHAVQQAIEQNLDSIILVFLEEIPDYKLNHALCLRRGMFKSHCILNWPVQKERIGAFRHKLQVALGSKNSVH
Format: cell-based. As to the method:
as §1, §2

The subject of series [4] is R9F specific CD8+ T cells secreting IFN-γ. Description: In vivo ELISpot gamma interferon (IFN-γ) after immunisation with HPV16E7. The settings on record: C57BL/6 mice; HPV16E7 protein 10 μg subcutaneously day 0, 7, 14, alone or with NA fraction (25 μg) or NA-B2 fraction (0.4 μg); splenocytes 7 days after last injection; FIG. 2. The method, then: Animals model: SPF healthy female C57BL/6 mice were obtained from Charles River (Les Oncins, France). The animals were 6-weeks-old upon arrival. At the beginning of experimentation, they were 7-week-old. The animals were housed in a single, exclusive room, air-conditioned to provide a minimum of 11 air changes per hour. The temperature and relative humidity ranges were within 20° C. and 24° C. and 40 to 70% respectively. Lighting was controlled automatically to give a cycle of 12 hours of light and 12 hours of darkness. Specific pathogen free status was checked by regular control of sentinel animals. Throughout the study the animals had access ad libitum to sterilized diet type RM1 (Dietex France, Saint Gratien). Sterile water was provided ad libitum via bottles.
IFN-γ ELIspot assay is a functional test to determine the ability of in vivo primed T cells to secrete IFN-γ upon re-stimulation in vitro with a specific peptide.
Animals were injected 3 times at a one week interval (day 0; day 7; day 14), subcutaneously (at the base of the tail) with preparations as described in Table 4.
Animals were then sacrificed 7 days after the last injection and their splenocytes were used to determine the frequency of R9F specific CD8+ T cells secreting IFN-γ upon re-stimulation. […]

For series [5], the target named is T4, hTLR5 (Homo sapiens, UniProt O60602).
T4 construct: host or cells: HEK-293 (293/hTLR5, clone hTLR 5-luc)
In kind it is cell-based. The method, then: as §1, §2

Peptide text beside a SMILES is read from it. * marks the point of attachment. X1 = CCCCCCCCCCCCCCCC(=O)OCC(C*)OC(=O)CCCCCCCCCCCCCCC

Broadly, the fold induction is the ratio of treated to control signal.

T4 sequence (O60602 21-858): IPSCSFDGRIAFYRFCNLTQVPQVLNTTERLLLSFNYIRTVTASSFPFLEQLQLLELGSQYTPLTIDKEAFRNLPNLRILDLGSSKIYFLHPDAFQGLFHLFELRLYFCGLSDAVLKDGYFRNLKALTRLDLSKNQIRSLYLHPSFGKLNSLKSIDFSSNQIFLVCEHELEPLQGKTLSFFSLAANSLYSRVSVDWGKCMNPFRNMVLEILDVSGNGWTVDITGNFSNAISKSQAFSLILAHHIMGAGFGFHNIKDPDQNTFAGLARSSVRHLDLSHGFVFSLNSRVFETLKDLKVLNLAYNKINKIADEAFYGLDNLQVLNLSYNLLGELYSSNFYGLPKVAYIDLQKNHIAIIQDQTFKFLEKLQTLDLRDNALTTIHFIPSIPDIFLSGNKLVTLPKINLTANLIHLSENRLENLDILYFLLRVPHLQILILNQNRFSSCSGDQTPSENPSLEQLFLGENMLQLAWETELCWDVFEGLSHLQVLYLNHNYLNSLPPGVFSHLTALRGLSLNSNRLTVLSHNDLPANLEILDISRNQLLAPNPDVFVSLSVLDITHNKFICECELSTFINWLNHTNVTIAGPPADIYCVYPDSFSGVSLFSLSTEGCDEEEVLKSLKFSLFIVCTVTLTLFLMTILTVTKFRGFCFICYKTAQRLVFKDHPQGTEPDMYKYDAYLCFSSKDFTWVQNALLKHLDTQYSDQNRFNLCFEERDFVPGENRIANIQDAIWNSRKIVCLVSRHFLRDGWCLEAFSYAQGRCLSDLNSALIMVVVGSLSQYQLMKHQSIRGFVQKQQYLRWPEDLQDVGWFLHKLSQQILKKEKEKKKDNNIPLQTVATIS
T2 sequence (O60603 21-784): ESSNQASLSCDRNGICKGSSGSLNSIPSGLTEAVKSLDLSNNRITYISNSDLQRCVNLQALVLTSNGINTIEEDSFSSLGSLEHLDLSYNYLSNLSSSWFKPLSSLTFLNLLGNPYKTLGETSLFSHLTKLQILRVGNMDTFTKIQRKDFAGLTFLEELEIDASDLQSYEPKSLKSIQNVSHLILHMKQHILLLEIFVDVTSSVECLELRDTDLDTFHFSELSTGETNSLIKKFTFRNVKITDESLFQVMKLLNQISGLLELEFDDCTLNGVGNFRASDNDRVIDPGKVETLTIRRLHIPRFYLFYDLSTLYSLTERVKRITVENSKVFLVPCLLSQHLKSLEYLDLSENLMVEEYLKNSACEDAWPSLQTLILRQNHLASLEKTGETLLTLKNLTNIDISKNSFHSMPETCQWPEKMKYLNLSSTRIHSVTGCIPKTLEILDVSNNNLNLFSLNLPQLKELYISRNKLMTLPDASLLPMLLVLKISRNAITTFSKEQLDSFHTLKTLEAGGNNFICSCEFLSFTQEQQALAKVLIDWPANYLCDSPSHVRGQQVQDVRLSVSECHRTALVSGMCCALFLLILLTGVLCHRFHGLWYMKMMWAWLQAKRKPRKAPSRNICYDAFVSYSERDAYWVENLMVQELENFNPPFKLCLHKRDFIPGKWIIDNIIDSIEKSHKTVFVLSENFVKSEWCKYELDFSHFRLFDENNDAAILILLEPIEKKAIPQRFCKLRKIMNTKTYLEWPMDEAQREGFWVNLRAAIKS
T2 sequence (Q9Y2C9 32-796 partner): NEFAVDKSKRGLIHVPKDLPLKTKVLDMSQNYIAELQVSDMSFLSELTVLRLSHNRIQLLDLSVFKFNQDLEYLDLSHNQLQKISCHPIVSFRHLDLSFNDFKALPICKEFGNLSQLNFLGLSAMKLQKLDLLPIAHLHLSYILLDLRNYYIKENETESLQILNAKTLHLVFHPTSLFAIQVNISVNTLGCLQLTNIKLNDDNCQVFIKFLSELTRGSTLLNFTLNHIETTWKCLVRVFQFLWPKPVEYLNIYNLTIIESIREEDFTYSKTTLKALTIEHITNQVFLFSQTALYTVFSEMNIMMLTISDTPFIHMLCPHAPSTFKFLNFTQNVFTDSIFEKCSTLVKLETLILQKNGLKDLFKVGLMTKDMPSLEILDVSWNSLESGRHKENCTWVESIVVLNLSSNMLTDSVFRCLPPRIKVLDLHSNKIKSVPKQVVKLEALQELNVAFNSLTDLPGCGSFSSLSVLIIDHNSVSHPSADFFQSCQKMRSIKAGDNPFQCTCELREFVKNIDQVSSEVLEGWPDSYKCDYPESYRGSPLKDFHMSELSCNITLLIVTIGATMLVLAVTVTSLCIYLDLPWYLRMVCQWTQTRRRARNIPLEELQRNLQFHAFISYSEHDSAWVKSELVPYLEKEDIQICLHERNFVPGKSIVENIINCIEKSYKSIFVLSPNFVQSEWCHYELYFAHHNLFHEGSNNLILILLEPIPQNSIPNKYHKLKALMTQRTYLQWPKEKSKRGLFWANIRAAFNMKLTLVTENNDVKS
T1 sequence (O60603 21-784): as the sequence (O60603 21-784) above
T1 sequence (Q9Y2C9 32-796): as the sequence (Q9Y2C9 32-796 partner) above

For the molecule `CCCCCCCCCCCCCCCC(=O)OCC(CSC[C@H](N)C(=O)NCC(=O)N[C@@H](CC(=O)O)C(=O)N1CCC[C@H]1C(=O)N[C@@H](CCCCN)C(=O)N[C@@H](Cc1c[nH]cn1)C(=O)N1CCC[C@H]1C(=O)N[C@@H](CCCCN)C(=O)N[C@@H](CO)C(=O)N[C@@H](Cc1ccccc1)C(=O)O)OC(=O)CCCCCCCCCCCCCCC` (stereo partly shown) [FSL-1] (H-C(X1)GDPKHPKSF-OH; N-terminus and C-terminus assumed), the fold induction in series [1] amounted to 140; in series [2] it was 157.
With Poly(I:C), in series [3], the Fold induction max/min stood at 62. For the same molecule, the “Ligand EC50” value in series [3] (hTLR 3-luc clone, control TLR ligand) is recorded as “Poly(I:C) 1.8ng/ml”.
With HPV16E7: HPV16 E7 protein antigen, the “Level of R9F specific T cells secreting IFN-γ (ELISpot)” value in series [4] is on record as “no R9F specific (HPV16E7 protein) T cells secreting IFN-γ”.
With Flagellin, the Fold induction max/min in series [5] came out at 392. Moreover, the “Ligand EC50” value in series [5] (hTLR 5-luc clone, control TLR ligand) is “Flagellin 66.2ng/ml”.

These data come from patent US20110287089A1, “USE OF A SACCHAROMYCES CEREVISIAE MITOCHONDRIAL NUCLEIC ACIDS FRACTION FOR IMMUNE STIMULATION” (priority 2009, published 2011).
